Reference: patent US5202310A, “Cyclosporine metabolites” (priority 1990, dated 1993)
Where “and” joins values, the source holds several entries; their conditions need not be identical. Equal values may be shown once. Read-outs that look alike come from different tables or passages of the source.

Legend:
IL1 = assay: Effect on IL1 (method of Freed); type: cell-based; conditions: compared with cyclosporine A
Source text: (§1) The effect of CM Peak H on IL1, IL2 and IL2 receptor activity was studied using the method as described in Freed, B. M., Transplantation 43:123, 1987.

IL2 = assay: Effect on IL2 (method of Freed); type: cell-based; conditions: compared with cyclosporine A
Source text: as §1

IL2 receptors = assay: Effect on IL2 receptor activity (method of Freed); type: cell-based; conditions: compared with cyclosporine A
Source text: as §1

LLC-PK1 cells [1] = conditions: renal epithelial cell line LLC-PK1; 19 h + 5 h incubation
[2] = test system: Renal glomerular mesangial cells; conditions: CM effects only at concentrations greater than 1 and 5 μg/ml
L2 cells [3] = conditions: murine lung cell line L2
LLC-PK1 cells [4] = conditions: renal epithelial cell line LLC-PK1
[5] = test system: Renal glomerular mesangial cells; conditions: CM effects only at concentrations greater than 1 and 5 μg/ml; remark: listed apart in the source
L2 cells [6] = conditions: murine lung cell line L2; remark: listed apart in the source
LLC-PK1 cells [7] = conditions: renal epithelial cell line LLC-PK1; CsA: to 1 ng/ml
[8] = test system: Renal glomerular mesangial cells; conditions: CsA: to 1 ng/ml, CM effects only at concentrations greater than 1 and 5 μg/ml
L2 cells [9] = conditions: murine lung cell line L2; remark: listed apart in the source
phospholipase A2 = conditions: at concentrations of 1 mg/ml or greater
[10] = for Amount of cyclosporine per liter of bile as determined with internal standard: 100 ml bile extracted, analytical gradient HPLC with CsA internal standard; for Mean % of total concentration of cyclosporine (mean value, n = 5): bile of five CsA treated liver transplant individuals
[11] = CM extracted from bile of liver transplant recipients, relative area by UV spectroscopy
lymphocyte proliferation = conditions: Freed 1987; OL-17 followed by OL-1 and OL-21; cited from earlier work
IL2 production = conditions: Freed 1987; OL-17 followed by OL-1 and OL-21; cited from earlier work
rat = conditions: Ryffel 1988; cited from earlier work

Row | Structure (SMILES) | Inhibition of DNA synthesis (LLC-PK1 cells [1]) | Inhibition of DNA synthesis [2] | Inhibition of DNA synthesis (L2 cells [3]) | Inhibition of RNA synthesis (LLC-PK1 cells [4]) | Inhibition of RNA synthesis [5] | Inhibition of RNA synthesis (L2 cells [6]) | Inhibition of protein synthesis (LLC-PK1 cells [7]) | Inhibition of protein synthesis [8] | Inhibition of protein synthesis (L2 cells [9]) | Amount of cyclosporine per liter of bile as determined with internal standard [10] [µg/L] | Ability to inhibit lymphocyte proliferation in a mixed lymphocyte reaction, compared to CsA (lymphocyte proliferation) | Ability to inhibit IL2 production, compared to CsA (IL2 production) | Mean % of total concentration of cyclosporine (mean value, n = 5) [10] | also measured
1 | C/C=C/C[C@@H](C)[C@@H](O)[C@H]1C(=O)N[C@@H](CC)C(=O)N(C)CC(=O)N(C)[C@@H](CC(C)C)C(=O)N[C@@H](C(C)C)C(=O)N(C)[C@@H](CC(C)C)C(=O)N[C@@H](C)C(=O)N[C@H](C)C(=O)N(C)[C@@H](CC(C)(C)O)C(=O)N[C@@H](CC(C)C)C(=O)N(C)[C@@H](C(C)C)C(=O)N1C [CM Peak H] | no inhibitory effects | some inhibitory effects | no inhibitory effects | no inhibitory effects | some inhibitory effects | no inhibitory effects | no inhibitory effects | some inhibitory effects | no inhibitory effects | 536 |  |  |  | Inhibiting formation of, and action of IL1 (IL1): as effective as cyclosporine A; Inhibiting formation of, and action of IL2 (IL2): as effective as cyclosporine A; Inhibiting formation of, and action of IL2 receptors (IL2 receptors): as effective as cyclosporine A; Inhibition of DNA synthesis ([2]; listed as Metabolite H): least inhibitory effects; Inhibition of RNA synthesis ([5]; listed as Metabolite H): least inhibitory effects; Inhibition of protein synthesis ([8]; listed as Metabolite H): least inhibitory effects; Inhibition of phospholipase A2 activity (phospholipase A2): no such inhibitory activity; Amount in RIA profile of bile ([10]; bile, gradient HPLC/polyclonal antibody RIA): above 250 μg/L CsA equivalents; Percentage of total CM ([11]; listed as H): 6.3%; Percentage of total CM ([11]; listed as peak H): 6.33%
2 | C/C=C/C[C@@H](C)[C@@H](O)[C@H]1C(=O)N[C@@H](CC)C(=O)N(C)CC(=O)N(C)[C@@H](CC(C)C)C(=O)N[C@@H](C(C)C)C(=O)N(C)[C@@H](CC(C)C)C(=O)N[C@@H](C)C(=O)N[C@H](C)C(=O)N(C)[C@@H](CC(C)(C)O)C(=O)N(C)[C@@H](CC(C)C)C(=O)N(C)[C@@H](C(C)C)C(=O)N1C [OL-1, 9-hydroxy cyclosporine A] | no inhibitory effects | some inhibitory effects | no inhibitory effects | no inhibitory effects | some inhibitory effects | no inhibitory effects | no inhibitory effects | some inhibitory effects | no inhibitory effects | 364 | comparable effects | comparable effects |  | 
3 | CC[C@@H]1NC(=O)[C@H]([C@H](O)[C@H](C)C/C=C/CO)N(C)C(=O)[C@H](C(C)C)N(C)C(=O)[C@H](CC(C)C)N(C)C(=O)[C@H](CC(C)(C)O)N(C)C(=O)[C@@H](C)NC(=O)[C@H](C)NC(=O)[C@H](CC(C)C)N(C)C(=O)[C@H](C(C)C)NC(=O)[C@H](CC(C)C)N(C)C(=O)CN(C)C1=O [OL-8, 1,9 dihydroxy cyclosporine A] | no inhibitory effects | some inhibitory effects | no inhibitory effects | no inhibitory effects | some inhibitory effects | no inhibitory effects | no inhibitory effects | some inhibitory effects | no inhibitory effects | 640 |  |  | 10.86 ± 2.4% and 11% | 
4 | CC[C@@H]1NC(=O)[C@H]([C@H](O)[C@H](C)C/C=C/CO)N(C)C(=O)[C@H](C(C)C)N(C)C(=O)[C@H](CC(C)C)N(C)C(=O)[C@H](CC(C)C)N(C)C(=O)[C@@H](C)NC(=O)[C@H](C)NC(=O)[C@H](CC(C)C)N(C)C(=O)[C@H](C(C)C)NC(=O)[C@H](CC(C)C)N(C)C(=O)CN(C)C1=O [OL-17, 1-hydroxy cyclosporine A] | no inhibitory effects | some inhibitory effects | no inhibitory effects | no inhibitory effects | some inhibitory effects | no inhibitory effects | no inhibitory effects | some inhibitory effects | no inhibitory effects | 853 | comparable effects | comparable effects | 16.00 ± 4.4% and 16% | Toxicity in vivo (rat): not toxic
